Here are results for two compounds from US20240415859A1, “USE OF ISORHOIFOLIN AND DERIVATIVE THEREOF IN PROMOTING NERVE REPAIR” (priority 2021, published 2024).

For one data set, the system named is hippocampal neurons. In words: In vitro neural repair assay, injured hippocampal neurons (gap closure rate). Particulars: E18 rat hippocampal neurons, 72 hours. The data set is classed as cell-based. As for the experimental part:
The experimental procedure is as depicted in FIG. 1. Removed the brain of E18 rat embryos and dissected into cortex and hippocampus. Subsequently, the cortex and hippocampus were separated into cortical neurons and hippocampal neurons, respectively. Then, seeded hippocampal neurons on 48-well plates. The first day that neurons are cultured in vitro is defined as day in vitro 0 (DIV0). On DIV2, Cytosine beta-D-arabinoside (AraC) was added to neurons to inhibit the proliferation of glial cells. On DIV8, neurons were injured using pipette tips (p10 tips) and various concentrations of Isorhoifolin was added. After 72 hours, immunostaining was performed. TUJ1 antibody was used to label neuronal cells to observe the regrowth of neurites. Images were taken using Observer Z1 microscope. As depicted in FIG. 2, the degree of neuronal axon regeneration was quantified using the gap closure rate. White dashed lines indicate the borders of injury gap, the central black area represents the region scratched by the tip of a pipette tips. The newly regenerated neurites grow from the white dashed lines toward the center of the gap. To quantify the results, we measured the lengths of gap (Lg) and distance between regenerated neurites (Ln) every 50 μm. […] Gap closure rate is calculated using the formula: (Lg−Ln)/Lg. […]

Another data set has as its system cortical neurons. Put plainly: In vitro neural repair assay, injured cortical neurons (gap closure rate). The class given is cell-based. Particulars: E18 rat cortical neurons, injured DIV8, 10 nM and 100 nM, 72 hours, standardized against 0.1% DMSO. The text has this: As depicted in FIG. 2, the degree of neuronal axon regeneration was quantified using the gap closure rate. White dashed lines indicate the borders of injury gap, the central black area represents the region scratched by the tip of a pipette tips. The newly regenerated neurites grow from the white dashed lines toward the center of the gap. To quantify the results, we measured the lengths of gap (Lg) and distance between regenerated neurites (Ln) every 50 μm. After unbiasedly drawing ten lines of equal distance, the average distance between neurites is taken: Length of gap between regenerated neurons (Ln). Gap closure rate is calculated using the formula: (Lg−Ln)/Lg. Scale bar=100 μm. Images were taken using Observer Z1 microscope. The experimental procedure is also as depicted in FIG. 1. Removed the brain of E18 rat embryos and dissected into cortex and hippocampus. Subsequently, the cortex and hippocampus were separated into cortical neurons and hippocampal neurons, respectively. Then, seeded cortical neurons on 48-well plates. The first day that neurons are cultured in vitro is defined as day in vitro 0 (DIV0). On DIV2, Cytosine beta-D-arabinoside (AraC) was added to neurons to inhibit the proliferation of glial cells. On DIV8, neurons were injured using pipette tips (p10 tips) and 10 nM and 100 nM Narirutin was added. […]

A further data set has as its system injured brain sections. In words: Ex vivo 3D brain tissue slice culture, scalpel injury. The data set is classed as cell-based. Particulars: E18 rat brain slices 350 μm, added every day, 96 hours, vs ddH2O. From the text: For the experiment, we took out the brain of E18 rat embryos and embedded in low-melting agarose. The brains were sectioned using Leica microtome VT100. The tissue sections were collected with 350 μm thick and injured using a scalpel. And placed them in inserts within a 6-well plate. This culturing method allows the brain slices to be exposed to both medium and air, facilitating a more realistic representation of the interactions between neuronal cells and other brain cells, as well as the three-dimensional structure, compared to in vitro culture. ddH2O or Isorhoifolin was added to injured brain sections every day. After 96 hours, immunostaining was performed. TUJ1 antibody was used to label neuron cells. GFAP antibody was used to label glial cells. DAPI was used to label nucleus. The experimental procedure for the Isorhoifolin derivative Narirutin is also depicted in FIG. 6. Took out the brain of E18 rat embryos and embedded in low-melting agarose. The brains were sectioned using Leica microtome VT100. The tissue sections were collected with 350 μm thick and injured using a scalpel. And placed them in inserts within a 6-well plate. […]

Another data set concerns Neuro2a cells. In words: CellTiter-Glo cell viability assay (cytotoxicity). The data set is classed as cell-based. The text has this:
Utilizing the CellTiter-Glo cell viability assay to assess the toxicity of Isorhoifolin on Neuro2a cells. CellTiter-Glo cell viability assay can detect the level of ATP in neuro2a cells after treatment of compounds to evaluate the survival rate.
For orientation: Cellular ATP, detected with luciferase, serves as a proxy for viable cell number.

For data set [1], the system named is motor coordination after brain injury. Put plainly: Controlled cortical impact (CCI) brain injury model, horizontal bar test. The data set is classed as in vivo. The following applies: mice, 14 or 140 μg/kg intranasal at 0, 2, 4, 6, 8, 10, 12 Dpi, tested 1, 3, 6, 10, 13 Dpi, vs ddH2O and Sham. Here is the method: Using the horizontal bar test, mice were placed on brass rods positioned at a height of 49 cm above the ground, with lengths of 38 cm and diameters of 2 mm, 4 mm, and 6 mm. Mice were required to grasp the brass rod with their forepaws, and their ability to move and coordinate was assessed by measuring the time spent on the brass rod and whether they reached the platform at the end of the rod. Evaluation criteria were as follows: 1 point for 1-5 seconds, 2 points for 5-10 seconds, 3 points for 10-20 seconds, 4 points for 20-30 seconds, and 5 points for over 30 seconds or reaching the platform. The experimental model, as depicted in FIG. 10, involved pre-training at −5, −3, and −1 days post injury (Dpi) (5, 3, and 1 day(s) before brain injury). At 0 Dpi, the controlled cortical impact model (CCI model) was used to induce brain injury in mice. Subsequently, at 0, 2, 4, 6, 8, 10, and 12 Dpi, mice were administered Isorhoifolin at doses of 14 or 140 μg/kg via intranasal delivery. Horizontal bar experiments were conducted at 1, 3, 6, 10, and 13 Dpi.

A further data set deals with retinal explants. Put plainly: Ex vivo retinal explant neuronal tissue repair. The data set is classed as cell-based, C57BL/6 mice. The following applies: P8 mouse retinal explants, 9 μM or 90 μM, five days, vs ddH2O. As for the experimental part:
Retinal explants were obtained from C57BL/6 mice at postnatal day 8. Following the sacrifice of mice, the eyes were enucleated, and the eyeballs were dissected using forceps and microscissors to separate the retina and remove the vitreous. Subsequently, the dissected retinas were quartered and trimmed along the edges of the tissue using microscissors. Each quarter was cultured on an 18 mm round coverslip and placed in a 12-well plate inside a CO2 incubator at 35° C. for five days. The culture medium was replaced daily with fresh medium containing either 9 μM or 90 μM Isorhoifolin. On the fifth day of culture, the retinal tissues were fixed with a mixture of 0.1% glutaraldehyde solution and 4% paraformaldehyde at room temperature for one hour. Immunostaining was performed using primary antibodies against the axonal marker beta-III-tubulin (TUJ1) and DAPI to label neurons and cell nuclei, respectively. Images were acquired using a super-resolution upright confocal microscope (LSM-800, Carl Zeiss). ImageJ software was utilized for image analysis, wherein the tissue boundary was delineated to calculate the perimeter and the area of neuronal fibers outside the tissue boundary. The ratio of neuronal fiber area to tissue boundary perimeter was then calculated to determine the unit perimeter neuronal fiber length.

Usually IC50 stands for the midpoint of a concentration-inhibition curve.

For Narirutin, the “neurite regeneration after injury (gap closure rate)” value is “effectively promotes dendritic outgrowth in hippocampal neurons” in the data set on hippocampal neurons (injured DIV8, 1 nM and 10 nM, standardized against 0.1% DMSO); “effectively promotes dendritic outgrowth in cortical neurons” in the data set on cortical neurons. Moreover, the “neurite outgrowth after injury in ex vivo 3D brain slice culture” value in the data set with injured brain sections is “promotes neurite outgrowth after injury in ex vivo 3D brain slice culture”.

Consider `C[C@@H]1O[C@@H](OC[C@H]2O[C@@H](Oc3cc(O)c4c(=O)cc(-c5ccc(O)cc5)oc4c3)[C@H](O)[C@@H](O)[C@@H]2O)[C@H](O)[C@H](O)[C@H]1O` [Isorhoifolin], for which the “neurite regrowth after injury (gap closure rate)” value with hippocampal neurons (injured DIV8, various concentrations, TUJ1 staining) is “promotes neurite regrowth after injury in hippocampal neurons”. In the data set with injured brain sections, the “neurite outgrowth after injury in ex vivo 3D brain slice culture” value is listed as “promotes neurite outgrowth after injury in ex vivo 3D brain slice culture”. In the data set with Neuro2a cells, the “toxicity towards Neuro2a cells” value is reported as “low toxicity”. Further, in the data set on Neuro2a cells (Mus musculus, N2a, CellTiter-Glo, read-out: IC50 (cell viability, ATP level)), the IC50 is about 11.6 mM. Besides, in data set [1], the “motor coordination recovery (horizontal bar test score)” value is reported as “motor coordination was similar to that of the Sham (surgery control) group”. Also, in the data set with retinal explants, the “recovery of injured retinal neurons (unit perimeter neuronal fiber length)” value is listed as “significant recovery of injured retinal neurons”.
